Counter-ions that a name gives are not always drawn.
System: peri-menopausal women experiencing at least 40-50 hot flushes per week
Experimental: A clinical study is conducted with 12 peri-menopausal women experiencing at least 40-50 hot flushes per week.
The study is designed as a so called double blind, cross-over study. During the study the medication is orally administered once a day. The visual aspects of the medication used is always the same, i.e. these aspects offer no clues as to the nature of the medication. The volunteers are asked to record the number of hot flushes they experience in a dairy (at least 1 entry per day).
During an initial period of 56 days (days 1-56), all 12 participants receive the same medication, i.e. 20 mg Fluoxetine HCl. Subsequently, the twelve women are randomly divided into two groups, i.e. group A with six women and group B with six women.

Structure (SMILES): CNCCC(Oc1ccc(C(F)(F)F)cc1)c1ccccc1 (stereo not drawn) [Fluoxetine HCl]
- number of hot flushes experienced per day (all 12 participants, 20 mg Fluoxetine HCl orally once a day, days 1-56): decreases substantially over time
- number of hot flushes (group A, 5mg Fluoxetine HCl + placebo orally once a day, days 169-281 (after the combination with vitamin B6)): increases again over time
- daily number of hot flushes experienced (group B, 5mg Fluoxetine HCl + placebo orally once a day, days 57-168 (after 20 mg Fluoxetine HCl)): increases over time
